Results reported in patent publication EP4563148A1, “MEDICINE FOR TREATING CANCER” (Science Technology Interact Co., Ltd., priority 2022, dated 2024).

Columns and labels:
Format in all cases: cell-based, human
γ-H2AX [1] = assay: Western blot of γ-H2AX after ionizing radiation; details: HeLa cells, drug 30 minutes before 10 Gy of X-ray, collected two hours later
Experimental: The culture medium for the cells seeded on a 3.5 cm dish was removed, followed by washing with 1x PBS and then direct dissolution in a 1x Sodium dodecyl sulfate (SDS) sample buffer (2% SDS, 1% 2-Mercaptoethanol [2-ME], 50 mM Tris-HCL [pH 6.8], 12% glycerol, 1% Bromophenol blue [BPB]). Thereafter, the solution was subjected to ultrasonic treatment with Vibra cell (Sonics & Materials Inc., CT, USA) and heated at 95°C for 5 minutes to prepare a whole cell extract. For Western blotting, electrophoresis was performed through a 6%, 10% SDS polyacrylamide gel, and […] was done to a PVDF membrane (Millipore Corporation Darmstadt, Germany) for 1.5 h, followed by blocking with 5% skim milk-PBS for 3 to 16 h. After blocking, a primary antibody diluted with a 0.5% BSA/TBS-T or Can get signal solution (TOYOBO, Osaka, Japan) was allowed to react overnight at 4°C. After washing 3 times with PBS-T for 10 minutes, a secondary antibody diluted with 0.5% BSA/TBS-T was allowed to react at room temperature for 1 to 3 hours. […]
The day after HeLa cells were seeded, Nicaraven was added, and 30 minutes later, the cells were irradiated with 10 Gy of X-ray. […] Cell extracts were adjusted and analyzed with Western Blot. […]

KYSE30 cells = assay: Cell viability of KYSE30 cells with siRNA-reduced homologous recombination activity; details: KYSE30 cells with expression of RAD51 suppressed by siRNA, compared with control
Experimental: (§1) KYSE270 cells and KYSE30 cells (human esophageal squamous cell carcinoma cell line) were purchased from JCRB Cell Bank, National Institutes of Biomedical Innovation, Health and Nutrition (Osaka, Japan). KYSE270 cells and KYSE30 cells were cultured in a medium in which RPMI1640 and Ham's F12 medium (both of which were manufactured by FUJIFILM Wako Pure Chemical Corporation, Osaka, Japan) were mixed in equal amounts and 5% FBS was added at 37°C in the presence of 5% CO2.
(§2) HeLa cell suspension adjusted to 5000 cells/ml was seeded in a 96 well plate at 100 ul/well, and the next day, siRNA was introduced, followed by addition of Olaparib or Nicaraven. One hundred twenty hours after gene introduction and Olaparib addition, HeLa cells were replaced in a medium to which Presto Blue assay (Thermo-Fisher Scientific, Waltham, MA, USA) had been added so as to have a final concentration of 5%, followed by reaction in the presence of 5% CO2 at 37°C for 1 hour, and then fluorescence was measured under conditions of an excitation wavelength of 520 nm and a fluorescence wavelength of 580 to 640 nm using GloMax (registered trademark) Explorer Multimode Microplate Reader (Promega, Madison, WI, USA).
Fig. 7. […]

γ-H2AX [2] = assay: γ-H2AX intranuclear foci immunostaining after ionizing radiation (DNA repair process); details: drug 30 minutes before 1.5 Gy of X-ray, 24 hours after irradiation
Experimental: After cell seeding, Nicaraven was added. After 30 minutes, the cells were irradiated with 1.5 Gy of X-ray, and after 2 hours and 24 hours, the cells were fixed and immunostained with an anti-γ-H2AX antibody.
Cells in which five or more γ-H2AX intranuclear foci were observed were counted, and the ratio was calculated and represented in a graph. Respective cells in which less than 5, 5 or more and less than 10, 10 or more and less than 20, and 20 or more γ-H2AX intranuclear foci were observed were counted, and the ratio was calculated and represented in a graph (Fig. 3D).
After IR, more γ-H2AX intranuclear foci are observed in multiple cells in 2 hours. After 24 hours, DNA double strand break is repaired, reducing the number of cells having intranuclear foci and the number of intranuclear foci per cell. Suppression of expression of RAD51 suppressed DNA damage repair. […] It is considered that more DNA damage was formed due to PARP inhibitory action. The measurement of nuclear focus of γ-H2AX 24 hours after X-ray irradiation in this example is a result in a cell having a fast cell cycle.

HeLa cells = assay: Drug sensitivity test: cell viability (Presto Blue) of HeLa cells with siRNA-reduced homologous recombination activity; details: 96 hours of culture
Experimental: as §2
After 96 hours of culture, cell viability was measured.
Figs. 1B and 1C show the measurement results of cell viability.

KYSE270 cells = assay: Cell viability of KYSE270 cells with siRNA-reduced homologous recombination activity; details: KYSE270 cells with expression of RAD51 suppressed by siRNA, compared with control; 5 days of culture
Experimental: as §1, §2
Fig. 6A. […] After 5 days of culture, cell viability was measured. […]

[3] = tested on: homologous recombination activity; assay: Assay for site-specific homologous recombination activity (ASHRA); details: HeLa cells, siRNA of control, BRCA1 or RAD51; 48 hours of culture with drug
Experimental: HeLa cells were seeded on a 3.5 cm dish, and the next day, siRNA was introduced. After 24 hours of culture from the introduction of siRNA, LentiCRISPRv2-ACTB-C1 and pBS-ACTB-200 GFPfr1 (vector for ASHRA measurement) were introduced, and Nicaraven was added at the same time. After further culturing for 48 hours, genomic DNA was purified using Blood Genomic DNA Extraction Mini Kit (Favorgen, Ping-tung, Taiwan). Genome quantitative PCR was performed using Go Taq qPCR master mix (Promega, Madison, WI, USA), measurement was done using CFX96 Touch Real-time PCR detection system (BioRad, Hercules, CA, USA), and knock-in efficiency was calculated by ΔΔCt method. Sequences of a primer for detecting a knock-in allele and a primer for detecting a reference allele are shown below. • For knock-in allyl detection • Forward […] • Reverse […] • For reference allyl detection • Forward […] • Reverse […] • Reference paper: NPL 2.
After 24 hours, a vector for measurement of homologous recombination activity was introduced, and Nicaraven was added. After 48 hours of culture, DNA was collected and homologous recombination activity was measured.
The homologous recombination ability was analyzed by Assay for site-specific homologous recombination activity (ASHRA) (Yoshino et al. Scientific Reports 2019, method shown in Fig. 5).

[4] = HeLa cells with expression of BRCA1 and RAD51 suppressed by siRNA, compared with control siRNA

Structure (SMILES) | amount of γ-H2AX (γ-H2AX [1]) | cell viability (KYSE30 cells) | γ-H2AX intranuclear foci (DNA damage remaining) (γ-H2AX [2]; HeLa cells with expression of RAD51 suppressed, compared with control) | γ-H2AX intranuclear foci (DNA damage remaining) (γ-H2AX [2]; HeLa cells, control and RAD51 siRNA) | cell viability (HeLa cells; [4]) | cell viability (HeLa cells; HeLa cells, drug added 24 hours after siRNA) | cell viability (KYSE270 cells) | homologous recombination activity [3]
CC(CNC(=O)c1cccnc1)NC(=O)c1cccnc1 (stereo not shown) [Nicaraven] | reduced | cell viability decreased | DNA damage remained more remarkably | caused DNA damage to remain | cell viability further decreased | decreased cell viability in a concentration-dependent manner | cell viability further decreased | did not affect the homologous recombination ability
O=C(c1cc(Cc2n[nH]c(=O)c3ccccc23)ccc1F)N1CCN(C(=O)C2CC2)CC1 [Olaparib] | – | – | – | – | decreased cell viability | – | decreased cell viability | –
